# Key:
# SMARCA2 = SMARCA2 (Homo sapiens (Human), UniProt P51531); experiment: SMARCA2 HiBiT degradation assay in HeLa cells; format: cell-based; settings: 18 hours; for DC50: read-out: DC50 (SM2-HeLa) SMARCA2 degradation potency; for Dmax: read-out: Dmax % (SM2-HeLa) maximum SMARCA2 degradation within the concentrations tested
# Procedure: (§1) HiBiT peptide knock-in of SMARCA2 in LgBiT expressing HEK293T cells was performed by CRISPR-mediated tagging system as described Promega. The homozygous HiBiT knock-in on c-terminus SMARCA2 was confirmed by sanger sequence. SMARCA2-HiBiT knock-in Hela monoclonal cell (CS302366) and SMARCA4-HiBiT knock-in Hela monoclonal cell (CS3023226) were purchased from Promega. The heterozygous HiBiT-knock-in was confirmed by sanger sequence in both SMARCA2-HiBiT and SMARCA4-HiBiT monoclonal cells.
# (§2) Dispense 10 μL aliquot of prepared Hela-SMARCA2-HiBiT or Hela-SMARCA4-HiBiT cells (1:1 ratio of cells:Trypan Blue (#1450013, Bio-Rad)) onto cell counting slide (#145-0011, Bio-Rad) and obtain cell density and cell viability using cell counter (TC20, Bio-Rad). Remove appropriate volume of resuspended cells from culture flask to accommodate 2500 cells/well @ 20 μL/well. Transfer Hela-HiBiT cells to 50 ml conical (#430290, Corning). Spin down at 1000 rpm for 5 min using tabletop centrifuge (SPINCHRON 15, Beckman). Discard supernatant and resuspend cell pellet in modified EMEM (#30-2003, ATCC) cell culture media containing 10% FBS (F2422-500ML, Sigma), and 1×Penicillin/Streptomycin (200 g/1) (30-002-CI, Corning) to a cell density of 125,000 cells/ml. Dispense 20 μL of resuspended Hela-HiBit cells per well in 384-well TC treated plate (#12-565-343, Thermo Scientific) using standard cassette (#50950372, Thermo Scientific) on Multidrop Combi (#5840310, Thermo Scientific) inside laminar flow cabinet. Dispense test compounds onto plates using digital liquid dispenser (D300E, Tecan). Incubate plates in humidified tissue culture incubator @37° C. for 18 hours. Add 20 ul of prepared Nano-Glo® HiBiT Lytic detection buffer (N3050, Promega) to each well of 384-well plate using small tube cassette (#24073295, Thermo Scientific) on Multidrop Combi, incubate @ RT for 30-60 min. Read plates on microplate reader (Envision 2105, PerkinElmer) using 384 well Ultra-Sensitive luminescence mode. Raw data files and compound information reports are swept into centralized data lake and deconvoluted using automated scripts designed by TetraScience, Inc. Data analysis, curve-fitting and reporting done in Dotmatics Informatics Suite using Screening Ultra module.
# SMARCA4 = SMARCA4 (Homo sapiens (Human), UniProt P51532); experiment: SMARCA4 HiBiT degradation assay in HeLa cells; format: cell-based; settings: 18 hours; for DC50: read-out: DC50 (SM4-HeLa) SMARCA4 degradation potency; for Dmax: HeLa, read-out: Dmax % (SM4-HeLa) maximum SMARCA4 degradation within the concentrations tested
# Procedure: as §1, §2
# SMARCA2, sequence (P51531 whole entry): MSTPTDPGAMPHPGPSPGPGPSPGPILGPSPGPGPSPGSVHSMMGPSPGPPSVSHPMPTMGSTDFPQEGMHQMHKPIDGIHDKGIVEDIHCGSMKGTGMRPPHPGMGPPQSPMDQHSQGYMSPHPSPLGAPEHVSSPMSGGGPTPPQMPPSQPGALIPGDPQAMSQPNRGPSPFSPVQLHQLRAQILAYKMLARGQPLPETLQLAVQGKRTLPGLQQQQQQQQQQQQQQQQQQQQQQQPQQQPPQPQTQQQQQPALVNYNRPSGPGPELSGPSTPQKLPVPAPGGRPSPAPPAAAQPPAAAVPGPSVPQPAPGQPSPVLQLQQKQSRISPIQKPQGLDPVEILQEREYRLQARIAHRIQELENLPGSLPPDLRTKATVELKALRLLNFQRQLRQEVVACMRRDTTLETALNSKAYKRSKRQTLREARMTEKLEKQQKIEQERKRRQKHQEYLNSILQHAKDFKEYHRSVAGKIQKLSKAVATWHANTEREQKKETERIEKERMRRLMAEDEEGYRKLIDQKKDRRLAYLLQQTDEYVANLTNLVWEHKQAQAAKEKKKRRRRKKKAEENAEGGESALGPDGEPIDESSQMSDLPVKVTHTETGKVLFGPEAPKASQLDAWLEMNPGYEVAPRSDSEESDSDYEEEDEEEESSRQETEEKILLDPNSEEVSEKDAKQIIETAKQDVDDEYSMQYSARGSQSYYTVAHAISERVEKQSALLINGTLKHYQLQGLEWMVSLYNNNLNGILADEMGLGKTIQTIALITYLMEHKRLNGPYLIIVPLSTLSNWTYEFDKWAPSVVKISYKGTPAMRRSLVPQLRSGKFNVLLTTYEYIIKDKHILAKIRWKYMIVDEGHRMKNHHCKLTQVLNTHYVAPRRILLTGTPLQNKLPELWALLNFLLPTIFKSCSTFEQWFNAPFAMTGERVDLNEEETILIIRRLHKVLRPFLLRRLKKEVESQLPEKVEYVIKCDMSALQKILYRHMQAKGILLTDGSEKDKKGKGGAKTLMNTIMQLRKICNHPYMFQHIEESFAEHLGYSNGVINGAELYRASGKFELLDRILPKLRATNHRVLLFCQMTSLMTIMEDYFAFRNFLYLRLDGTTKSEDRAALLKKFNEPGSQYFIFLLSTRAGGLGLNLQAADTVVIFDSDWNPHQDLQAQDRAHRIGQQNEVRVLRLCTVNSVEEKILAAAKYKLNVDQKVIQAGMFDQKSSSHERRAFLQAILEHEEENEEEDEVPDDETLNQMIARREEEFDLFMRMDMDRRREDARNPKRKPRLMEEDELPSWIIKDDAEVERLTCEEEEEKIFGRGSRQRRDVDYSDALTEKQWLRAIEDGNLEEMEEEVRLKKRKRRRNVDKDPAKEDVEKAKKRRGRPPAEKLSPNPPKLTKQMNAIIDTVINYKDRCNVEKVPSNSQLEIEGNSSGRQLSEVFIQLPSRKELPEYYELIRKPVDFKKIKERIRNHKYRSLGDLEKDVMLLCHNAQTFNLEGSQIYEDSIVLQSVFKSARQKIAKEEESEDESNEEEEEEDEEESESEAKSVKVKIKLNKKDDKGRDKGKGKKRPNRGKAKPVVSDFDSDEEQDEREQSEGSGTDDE
# SMARCA4, sequence (P51532 whole entry): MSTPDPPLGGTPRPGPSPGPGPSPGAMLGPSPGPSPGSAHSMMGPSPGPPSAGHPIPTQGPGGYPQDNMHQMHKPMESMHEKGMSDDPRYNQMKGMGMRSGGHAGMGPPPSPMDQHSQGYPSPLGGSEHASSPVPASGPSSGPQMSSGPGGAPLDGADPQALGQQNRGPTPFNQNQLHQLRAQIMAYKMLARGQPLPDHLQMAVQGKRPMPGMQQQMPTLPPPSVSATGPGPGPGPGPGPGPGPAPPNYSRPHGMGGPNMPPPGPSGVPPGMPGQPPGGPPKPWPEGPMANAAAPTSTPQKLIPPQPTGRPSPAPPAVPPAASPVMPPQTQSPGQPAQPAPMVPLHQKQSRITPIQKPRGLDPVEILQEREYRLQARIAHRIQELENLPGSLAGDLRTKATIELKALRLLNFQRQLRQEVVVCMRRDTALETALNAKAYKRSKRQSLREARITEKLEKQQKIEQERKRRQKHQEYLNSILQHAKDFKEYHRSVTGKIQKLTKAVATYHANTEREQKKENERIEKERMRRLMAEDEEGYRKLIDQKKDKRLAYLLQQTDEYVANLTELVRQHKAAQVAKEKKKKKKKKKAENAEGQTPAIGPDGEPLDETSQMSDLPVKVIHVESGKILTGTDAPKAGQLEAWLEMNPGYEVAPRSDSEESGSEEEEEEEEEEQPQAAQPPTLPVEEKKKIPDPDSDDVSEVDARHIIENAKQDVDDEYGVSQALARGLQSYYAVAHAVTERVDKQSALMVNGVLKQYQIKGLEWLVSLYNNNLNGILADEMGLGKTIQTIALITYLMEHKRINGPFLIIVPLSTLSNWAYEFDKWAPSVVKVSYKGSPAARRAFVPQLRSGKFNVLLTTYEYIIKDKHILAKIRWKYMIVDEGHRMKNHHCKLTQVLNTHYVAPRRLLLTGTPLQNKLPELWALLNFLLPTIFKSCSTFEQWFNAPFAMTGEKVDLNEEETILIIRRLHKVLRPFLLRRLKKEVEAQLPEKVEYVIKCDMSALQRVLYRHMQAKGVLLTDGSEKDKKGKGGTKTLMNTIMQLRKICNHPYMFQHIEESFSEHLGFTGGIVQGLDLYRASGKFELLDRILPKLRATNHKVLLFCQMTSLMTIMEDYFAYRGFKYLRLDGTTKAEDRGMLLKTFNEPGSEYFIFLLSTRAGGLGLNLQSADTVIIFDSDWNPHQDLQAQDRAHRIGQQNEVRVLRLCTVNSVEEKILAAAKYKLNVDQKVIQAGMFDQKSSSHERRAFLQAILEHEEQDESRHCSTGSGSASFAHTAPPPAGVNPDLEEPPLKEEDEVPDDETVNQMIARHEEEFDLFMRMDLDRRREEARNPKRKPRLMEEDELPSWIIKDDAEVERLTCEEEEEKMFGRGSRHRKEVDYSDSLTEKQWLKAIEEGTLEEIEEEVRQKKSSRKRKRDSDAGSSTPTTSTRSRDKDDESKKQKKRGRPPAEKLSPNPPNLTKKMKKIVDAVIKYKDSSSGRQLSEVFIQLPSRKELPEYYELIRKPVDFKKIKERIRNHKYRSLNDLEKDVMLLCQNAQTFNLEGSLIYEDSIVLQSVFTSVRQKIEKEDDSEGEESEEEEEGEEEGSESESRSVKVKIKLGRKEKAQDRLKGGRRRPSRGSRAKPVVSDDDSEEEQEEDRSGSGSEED
DC50 (SMARCA2) [nM],Dmax (SMARCA2) [%],DC50 (SMARCA4) [nM],Dmax (SMARCA4) [%],Dmax % (SM4-HeLa) maximum SMARCA4 degradation within the concentrations tested (SMARCA4),SMILES
< 100,> 75,< 100,> 75,–,"Cc1ncsc1-c1ccc([C@H](C)NC(=O)[C@@H]2C[C@@H](O)CN2C(=O)[C@@H](c2cc(OCCN3CC(O)C(N4CCN5c6cc(-c7ccccc7O)nnc6NC[C@H]5C4)C3)no2)C(C)C)cc1 (stereo partly drawn) [Example 93, (2S,4R)-4-hydroxy-1-((2R)-2-(3-(2-(3-hydroxy-4-((S)-2-(2-hydroxyphenyl)-5,6,6a,7,9,10-hexahydro-8H-pyrazino[1′,2′:4,5]pyrazino[2,3-c]pyridazin-8-yl)pyrrolidin-1-yl)ethoxy)isoxazol-5-yl)-3-methylbutanoyl)-N-((S)-1-(4-(4-methylthiazol-5-yl)phenyl)ethyl)pyrrolidine-2-carboxamide]"
< 100,> 75,< 100,> 75,–,"Cc1ncsc1-c1ccc([C@H](C)NC(=O)[C@@H]2C[C@@H](O)CN2C(=O)[C@@H](c2cc(O[C@@H](C)CN3CCC(CN4CCN5c6cc(-c7ccccc7O)nnc6NC[C@H]5C4)CC3)no2)C(C)C)cc1 [Example 100, (2S,4R)-4-hydroxy-1-((R)-2-(3-(((S)-1-(4-(((S)-2-(2-hydroxyphenyl)-5,6,6a,7,9,10-hexahydro-8H-pyrazino[1′,2′:4,5]pyrazino[2,3-c]pyridazin-8-yl)methyl)piperidin-1-yl)propan-2-yl)oxy)isoxazol-5-yl)-3-methylbutanoyl)-N-((S)-1-(4-(4-methylthiazol-5-yl)phenyl)ethyl)pyrrolidine-2-carboxamide]"
< 100,> 75,< 100,50 to 75,–,"CCC(CN1CCC(N2CCN3c4cc(-c5ccccc5O)nnc4NC[C@H]3C2)CC1)Oc1cc([C@H](C(=O)N2C[C@H](O)C[C@H]2C(=O)N[C@@H](C)c2ccc(-c3scnc3C)cc2)C(C)C)on1 (stereo partly drawn) [Example 60, (2S,4R)-4-hydroxy-1-(2-(3-((1-(4-((S)-2-(2-hydroxyphenyl)-5,6,6a,7,9,10-hexahydro-8H-pyrazino[1′,2′:4,5]pyrazino[2,3-c]pyridazin-8-yl)piperidin-1-yl)butan-2-yl)oxy)isoxazol-5-yl)-3-methylbutanoyl)-N-((S)-1-(4-(4-methylthiazol-5-yl)phenyl)ethyl)pyrrolidine-2-carboxamide]"
< 100,> 75,< 100,> 75,–,"Cc1ncsc1-c1ccc([C@H](C)NC(=O)[C@@H]2C[C@@H](O)CN2C(=O)[C@@H](c2cc(OCCN3CCC(N(C)C4CCN5c6cc(-c7ccccc7O)nnc6NCC5C4)CC3)no2)C(C)C)cc1 (stereo partly drawn) [Example 99, (2S,4R)-4-hydroxy-1-((2R)-2-(3-(2-(4-((2-(2-hydroxyphenyl)-6,6a,7,8,9,10-hexahydro-5H-pyrido[1′,2′:4,5]pyrazino[2,3-c]pyridazin-8-yl)(methyl)amino)piperidin-1-yl)ethoxy)isoxazol-5-yl)-3-methylbutanoyl)-N-((S)-1-(4-(4-methylthiazol-5-yl)phenyl)ethyl)pyrrolidine-2-carboxamide]"
< 100,> 75,< 100,> 75,–,"Cc1ncsc1-c1ccc([C@H](C)NC(=O)[C@@H]2C[C@@H](O)CN2C(=O)[C@@H](c2cc(OCCN3CCCC(CN4CCN5c6cc(-c7ccccc7O)nnc6NC[C@H]5C4)C3)no2)C(C)C)cc1 (single isomer, unassigned) [Example 86]"
< 100,> 75,100 to 1000,> 75,–,"Cc1ncsc1-c1ccc([C@H](CO)NC(=O)[C@@H]2C[C@@H](O)CN2C(=O)C(c2cc(OCCN3CCC(CN4CCN5c6cc(-c7ccccc7O)nnc6NC[C@H]5C4)CC3)no2)C(C)C)cc1 (stereo partly drawn) [Example 46, (2S,4R)-4-hydroxy-N-((R)-2-hydroxy-1-(4-(4-methylthiazol-5-yl)phenyl)ethyl)-1-(2-(3-(2-(4-(((S)-2-(2-hydroxyphenyl)-5,6,6a,7,9,10-hexahydro-8H-pyrazino[1′,2′:4,5]pyrazino[2,3-c]pyridazin-8-yl)methyl)piperidin-1-yl)ethoxy)isoxazol-5-yl)-3-methylbutanoyl)pyrrolidine-2-carboxamide]"
< 100,> 75,< 100,> 75,–,"Cc1ncsc1-c1ccc([C@H](C)NC(=O)[C@@H]2C[C@@H](O)CN2C(=O)[C@@H](c2cc(O[C@@H](C)CN3CCC(N4CCN5c6cc(-c7ccccc7O)nnc6NCC5(C)C4)C3)no2)C(C)C)cc1 (stereo partly drawn) [Example 64, (2S,4R)-4-hydroxy-1-((2R)-2-(3-(((2S)-1-(3-(2-(2-hydroxyphenyl)-6a-methyl-5,6,6a,7,9,10-hexahydro-8H-pyrazino[1′,2′:4,5]pyrazino[2,3-c]pyridazin-8-yl)pyrrolidin-1-yl)propan-2-yl)oxy)isoxazol-5-yl)-3-methylbutanoyl)-N-((S)-1-(4-(4-methylthiazol-5-yl)phenyl)ethyl)pyrrolidine-2-carboxamide]"
< 100,–,< 100,–,–,"Cc1ncsc1-c1ccc([C@H](C)NC(=O)[C@@H]2C[C@@H](O)CN2C(=O)[C@@H](c2cc(OCCN3CCCC(N4CCN5c6cc(-c7ccccc7O)nnc6NC[C@H]5C4)C3)no2)C(C)C)cc1 (single isomer, unassigned) [Example 42]"
< 100,> 75,< 100,> 75,–,"Cc1ncsc1-c1ccc([C@H](C)NC(=O)[C@@H]2C[C@@H](O)CN2C(=O)[C@@H](c2cc(OCC(=O)N3CCC(N4CCN5c6cc(-c7ccccc7O)nnc6NC[C@H]5C4)C(C)C3)no2)C(C)C)cc1 (single isomer, unassigned) [Example 30]"
< 100,–,< 100,–,–,"Cc1ncsc1-c1ccc([C@H](C)NC(=O)[C@@H]2C[C@@H](O)CN2C(=O)[C@@H](c2cc(OCCN3CCC(N4CCN5c6cc(-c7ccccc7O)nnc6NCC5(C)C4)C3)no2)C(C)C)cc1 (stereo partly drawn) [Example 72, (2S,4R)-4-hydroxy-1-((2R)-2-(3-(2-(3-(2-(2-hydroxyphenyl)-6a-methyl-5,6,6a,7,9,10-hexahydro-8H-pyrazino[1′,2′:4,5]pyrazino[2,3-c]pyridazin-8-yl)pyrrolidin-1-yl)ethoxy)isoxazol-5-yl)-3-methylbutanoyl)-N-((S)-1-(4-(4-methylthiazol-5-yl)phenyl)ethyl)pyrrolidine-2-carboxamide]"
< 100,> 75,< 100,> 75,–,"Cc1ncsc1-c1ccc([C@H](C)NC(=O)[C@@H]2C[C@@H](O)CN2C(=O)[C@@H](c2cc(OCCN3CCC(C(C)N4CCN5c6cc(-c7ccccc7O)nnc6NC[C@H]5C4)CC3)no2)C(C)C)cc1 (single isomer, unassigned) [Example 58]"
< 100,> 75,100 to 1000,> 75,–,"Cc1ncsc1-c1ccc([C@H](C)NC(=O)[C@@H]2C[C@@H](O)CN2C(=O)[C@@H](c2cc(OC(C)CN3CCCC(CN4CCN5c6cc(-c7ccccc7O)nnc6NC[C@H]5C4)CC3)no2)C(C)C)cc1 (stereo partly drawn) [Example 68, (2S,4R)-4-hydroxy-1-((2R)-2-(3-((1-(4-(((S)-2-(2-hydroxyphenyl)-5,6,6a,7,9,10-hexahydro-8H-pyrazino[1′,2′:4,5]pyrazino[2,3-c]pyridazin-8-yl)methyl)azepan-1-yl)propan-2-yl)oxy)isoxazol-5-yl)-3-methylbutanoyl)-N-((S)-1-(4-(4-methylthiazol-5-yl)phenyl)ethyl)pyrrolidine-2-carboxamide]"
< 100,> 75,< 100,–,B (B = 50%< Dmax <=75%),"Cc1ncsc1-c1ccc([C@H](C)NC(=O)[C@@H]2C[C@@H](O)CN2C(=O)[C@@H](c2cc(O[C@@H](C)CN3CCC(N4CCN5c6cc(-c7ccccc7O)nnc6NC[C@H]5C4)C3)no2)C(C)C)cc1 (stereo partly drawn) [Example 48, (2S,4R)-4-hydroxy-1-((2R)-2-(3-(((2S)-1-(3-((S)-2-(2-hydroxyphenyl)-5,6,6a,7,9,10-hexahydro-8H-pyrazino[1′,2′:4,5]pyrazino[2,3-c]pyridazin-8-yl)pyrrolidin-1-yl)propan-2-yl)oxy)isoxazol-5-yl)-3-methylbutanoyl)N-((S)-1-(4-(4-methylthiazol-5-yl)phenyl)ethyl)pyrrolidine-2-carboxamide]"

# Reference: patent US20240018158A1, “BRM TARGETING COMPOUNDS AND ASSOCIATED METHODS OF USE” (Prelude Therapeutics Incorporated, priority 2020, published 2024)
